This note sets out measurements from ChEMBL document CHEMBL1201862, “PubChem BioAssay data set” (2004).

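All cell lines were grown in 96-well plates and treated with compound for 48 hours. GI50 is the concentration that inhibits growth by half.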 The source made the active and inactive calls. No stated cut-off is given here; in the data, active = GI50 up to about 1.1 µM and inactive = higher. Where only a bound is given, the exact number is not on record here.

Test systems include SK-OV-3; M14; A498; SF-295; T47D; SR; Hs-578T; TK-10; NCI-H226; COLO 205; RXF 393; EKVX; RPMI-8226; HCT-15; MOLT-4; IGROV-1; OVCAR-5; ACHN; MDA-MB-231; HOP-92.
Assay in all cases: growth of human tumour cells (NCI), 48 h

`O=c1onc2n1-c1cc(Cl)ccc1C(=S)N1CSCC21` (stereo unspecified): the GI50 in the assay on SK-OV-3 was > 100 µM (inactive); in the assay on M14, > 100 µM (inactive); in the assay with A498 it was > 100 µM (inactive); in the assay with SF-295 it was > 100 µM (inactive); in the assay with T47D it was > 100 µM (inactive); in the assay on SR, 34.6 µM (inactive). Besides, the GI50 in the assay with Hs-578T, in the assay with TK-10, in the assay with NCI-H226, with COLO 205, in the assay with RXF 393 and in the assay on EKVX was > 100 µM (inactive) throughout. Also, the GI50 with RPMI-8226 is > 100 µM (inactive); in the assay with HCT-15 it was more than 100 µM; in the assay on MOLT-4 it was > 100 µM (inactive); in the assay with IGROV-1, > 100 µM (inactive); in the assay on OVCAR-5, > 100 µM (inactive); in the assay on ACHN, > 100 µM (inactive). Further, in the assay with MDA-MB-231, the GI50 is > 100 µM (inactive).

With `COc1ccc(OC)c(-c2cn3c(n2)sc2ccccc23)c1`, the GI50 with SK-OV-3 was > 100 µM (inactive); in the assay with SF-295 it was 95.3 µM (inactive); in the assay on T47D, > 100 µM (inactive); in the assay on HOP-92 it was 15.8 µM (inactive); with SR, > 100 µM (inactive); in the assay on Hs-578T it was 39.7 µM (inactive). Further, the GI50 in the assay on TK-10, with NCI-H226, in the assay on COLO 205, with RXF 393, in the assay on EKVX and in the assay with RPMI-8226 was > 100 µM (inactive) in each case. Moreover, the GI50 with HCT-15 was more than 100 µM; with MOLT-4, > 100 µM (inactive); in the assay on IGROV-1, > 100 µM (inactive); with OVCAR-5, > 100 µM (inactive); in the assay on ACHN, > 100 µM (inactive); in the assay with MDA-MB-231, > 100 µM (inactive).

For `Cc1ccc(C(=O)N(Cc2ccccc2)Cc2ccccc2)cc1/N=N/N(C)C`, the GI50 in the assay on SK-OV-3 was 29.5 µM (inactive); in the assay with M14, 18.1 µM (inactive); in the assay with SF-295, 9.29 µM (inactive); with T47D, 14.8 µM (inactive); with HOP-92 it was 11.9 µM (inactive); with SR it was 27.7 µM (inactive). For the same compound, the GI50 in the assay on Hs-578T is 19.3 µM (inactive); in the assay with TK-10, 33 µM (inactive); in the assay with NCI-H226 it was 19.1 µM (inactive); in the assay on COLO 205 it was 21.5 µM (inactive); with EKVX, 35.3 µM (inactive); in the assay on RPMI-8226, 29 µM (inactive). In addition, the GI50 with HCT-15 is 17.3 µM; in the assay on MOLT-4, 26.4 µM (inactive); with IGROV-1 it was 40.1 µM (inactive); in the assay on OVCAR-5 it was 39.2 µM (inactive); in the assay with ACHN, 7.01 µM (inactive); in the assay with MDA-MB-231, 22.9 µM (inactive).

With `COc1cccc2c1OC(c1cccc3ccccc13)C([N+](=O)[O-])=C2` (stereo unspecified), the GI50 with SK-OV-3 was 3.11 µM (inactive); in the assay with M14 it was 1.31 µM (inactive); in the assay on SF-295, 1.88 µM (inactive); with T47D it was 2.22 µM (inactive); in the assay on SR it was 0.604 µM (active); in the assay on Hs-578T it was 2.48 µM (inactive). Also, the GI50 with TK-10 is 2.32 µM (inactive); in the assay with NCI-H226, 2 µM (inactive); in the assay on COLO 205 it was 1.92 µM (inactive); in the assay with RXF 393 it was 1.31 µM (inactive); in the assay on EKVX it was 3.07 µM (inactive); with RPMI-8226 it was 3.45 µM (inactive). The GI50 in the assay on HCT-15 was 1.55 µM; in the assay with MOLT-4, 0.552 µM (active); in the assay on IGROV-1, 2.49 µM (inactive); with OVCAR-5, 1.82 µM (inactive); in the assay with ACHN it was 1.6 µM (inactive); in the assay with MDA-MB-231, 2.12 µM (inactive).

For the compound `N#Cc1c(-c2ccccc2)c(C#N)c(=S)n(C2OC(CO)C(O)C(O)C2O)c1O` (stereo unspecified), the GI50 in the assay on SK-OV-3, with M14, in the assay on A498, in the assay on SF-295, in the assay on T47D and with SR was > 100 µM (inactive) throughout. Besides, the GI50 in the assay with Hs-578T is > 100 µM (inactive); in the assay on TK-10, > 100 µM (inactive); in the assay with NCI-H226 it was > 100 µM (inactive); in the assay with RXF 393 it was > 100 µM (inactive); in the assay on RPMI-8226, > 100 µM (inactive); in the assay with HCT-15, more than 100 µM. Also, the GI50 in the assay on MOLT-4, in the assay on IGROV-1, with OVCAR-5, in the assay on ACHN and with MDA-MB-231 was > 100 µM (inactive) each time.

On to `CC1(C)C2CC(c3ccncc3)ON2C(C)(C)N1O` (stereo unspecified), for which the GI50 in the assay with SK-OV-3, in the assay on M14, with SF-295, in the assay on T47D, in the assay on HOP-92 and with SR was > 100 µM (inactive) each time. For the same compound, the GI50 in the assay with Hs-578T, in the assay on TK-10, with NCI-H226, in the assay with COLO 205, in the assay on RXF 393 and in the assay with EKVX was > 100 µM (inactive) each time. Moreover, the GI50 is > 100 µM (inactive) in the assay with RPMI-8226; more than 100 µM in the assay with HCT-15; > 100 µM (inactive) in the assay on MOLT-4; > 100 µM (inactive) with IGROV-1; > 100 µM (inactive) in the assay with OVCAR-5; > 100 µM (inactive) with ACHN. Further, the GI50 in the assay on MDA-MB-231 is > 100 µM (inactive).

For `COc1ccc(Nc2nc(N)c(C(=O)c3ccc(Cl)cc3)s2)cc1`, the GI50 was < 0.01 µM (active) with SK-OV-3; < 0.01 µM (active) in the assay on M14; < 0.01 µM (active) with A498; < 0.01 µM (active) in the assay on SF-295; 24 µM (inactive) in the assay with T47D; 18.2 µM (inactive) with HOP-92. For the same compound, the GI50 in the assay with Hs-578T is < 0.01 µM (active); in the assay on TK-10, 3.61 µM (inactive); with NCI-H226, 0.018 µM (active); in the assay on COLO 205, 0.0261 µM (active); in the assay with RXF 393, < 0.01 µM (active); in the assay on EKVX, 39.6 µM (inactive). Also, the GI50 with RPMI-8226 was < 0.01 µM (active); in the assay on HCT-15, 0.0439 µM; with MOLT-4, < 0.01 µM (active); in the assay with IGROV-1, 0.0655 µM (active); in the assay on OVCAR-5, 0.505 µM (active); with ACHN, < 0.01 µM (active). In addition, the GI50 in the assay with MDA-MB-231 was 0.047 µM (active).

Consider `N#CCCC1C(C#N)C2CC1C1C3C=CC(C3)C21` (stereo unspecified), for which the GI50 with SK-OV-3, with M14, with SF-295, with T47D, in the assay on HOP-92 and in the assay on SR was > 100 µM (inactive) in each case. The GI50 is > 100 µM (inactive) in the assay on Hs-578T; > 100 µM (inactive) in the assay on TK-10; > 100 µM (inactive) in the assay on NCI-H226; > 100 µM (inactive) with COLO 205; 63.4 µM (inactive) in the assay with RXF 393; > 100 µM (inactive) in the assay with EKVX. Also, the GI50 was > 100 µM (inactive) in the assay on RPMI-8226; more than 100 µM in the assay on HCT-15; > 100 µM (inactive) in the assay with MOLT-4; > 100 µM (inactive) with IGROV-1; > 100 µM (inactive) in the assay on OVCAR-5; > 100 µM (inactive) in the assay with ACHN. Besides, the GI50 in the assay with MDA-MB-231 is > 100 µM (inactive).

On to `COc1c2c(cc3occ(-c4ccc(CC=C(C)C)cc4)c(=O)c13)OC(C)(C)C=C2`, for which the GI50 in the assay on SK-OV-3 is > 100 µM (inactive); in the assay on M14, 34.3 µM (inactive); in the assay with SF-295, 35.4 µM (inactive); with T47D, 16.5 µM (inactive); in the assay on SR, 8.55 µM (inactive); in the assay on Hs-578T, 85.1 µM (inactive). Besides, the GI50 in the assay with TK-10 was 81.8 µM (inactive); in the assay on NCI-H226, 48.1 µM (inactive); in the assay on COLO 205 it was 43.4 µM (inactive); in the assay with RXF 393 it was 43.4 µM (inactive); in the assay with EKVX, 28.4 µM (inactive); in the assay with RPMI-8226, 6.97 µM (inactive). Also, the GI50 was 45.9 µM with HCT-15; 10.7 µM (inactive) with MOLT-4; > 100 µM (inactive) with IGROV-1; > 100 µM (inactive) in the assay on OVCAR-5; 77.6 µM (inactive) in the assay on ACHN; > 100 µM (inactive) in the assay on MDA-MB-231.

As for `COC1C(O)CC(OC2C(C)OC(Oc3cc(O)c4c(O)c5c(cc4c3)C[C@@H]([C@H](OC)C(=O)[C@@H](O)[C@@H](C)O)[C@H](OC3CC(OC4CC(OC6CC(C)(O)C(O)C(C)O6)C(O)C(C)O4)C(O)C(C)O3)C5=O)CC2OC(C)=O)OC1C` (stereo partly specified), the GI50 with SK-OV-3 was > 100 µM (inactive); in the assay on A498, > 100 µM (inactive); in the assay with SF-295, > 10 µM (inactive); in the assay with T47D it was 66.5 µM (inactive); in the assay with SR it was 63.5 µM (inactive); in the assay on Hs-578T it was 20.3 µM (inactive). Also, the GI50 in the assay with TK-10 is > 100 µM (inactive); in the assay with NCI-H226 it was 29 µM (inactive); in the assay on COLO 205 it was 70.8 µM (inactive); in the assay with EKVX, > 100 µM (inactive); in the assay with RPMI-8226, 60.8 µM (inactive); in the assay on HCT-15, more than 100 µM. In addition, the GI50 in the assay with MOLT-4 is 17.5 µM (inactive); in the assay on IGROV-1 it was 41.1 µM (inactive); in the assay on OVCAR-5, > 100 µM (inactive); with ACHN, 56.1 µM (inactive); in the assay with MDA-MB-231, 91.6 µM (inactive).

In the case of `CCn1cc2c(=O)n3ncn(-c4ccc(Br)cc4)c3nc2n1`, the GI50 in the assay on SK-OV-3, in the assay on M14, in the assay on A498, in the assay with SF-295, in the assay on T47D and in the assay on SR was > 100 µM (inactive) throughout. Further, the GI50 was 29.9 µM (inactive) in the assay with Hs-578T; 78.2 µM (inactive) in the assay with TK-10; > 100 µM (inactive) with NCI-H226; > 100 µM (inactive) in the assay on COLO 205; > 100 µM (inactive) in the assay on RXF 393; > 100 µM (inactive) in the assay on EKVX. The GI50 in the assay on RPMI-8226 was 40.3 µM (inactive); in the assay with HCT-15 it was 93.8 µM; in the assay on MOLT-4 it was > 100 µM (inactive); in the assay with IGROV-1, 29.6 µM (inactive); with OVCAR-5, > 100 µM (inactive); with ACHN it was > 100 µM (inactive). In addition, the GI50 with MDA-MB-231 was 40.6 µM (inactive).
